Experimental data as given in patent US9630894B2, “Energy efficient method and apparatus for the extraction of biomolecules from dilute aqueous solution” (DYNASEP INC., priority 2012, dated 2017).
Entries after “also recorded” stand apart in the source; their conditions may differ.

Tests used:
[1] = system: fermentation cultures; test: DME toxicity study: cell growth by absorption at 600 nm (A600); format: cell-based
Method: (§1) Toxicity studies were performed to determine the effects of DME on fermentation cultures. Cell growth, viability and solvent production were measured to determine what effect DME has on fermentation cultures. Cell growth was monitored by absorption measurements taken at 600 nm (A600). Viability was measured by counting the colony forming units (CFU) after 24 hours. Solvent production was quantified by HPLC.
(§2) The first round of testing was performed using media that had been sparged with DME gas at 23° C. The amount of DME absorbed into the media was measured by weight gain after sparging. […] Two control cultures were also used for direct comparison of cultures with and without the presence of DME.
A second round of testing was performed at lower DME concentrations. […] Based on the solvent measurements in Table 8 and Table 9 solvent production was also unaffected by DME at 0.7 wt. %. […] This is apparent after examination of the cell density and solvent production for samples 1-5, 2-1, 2-4 and 2-5 in comparison to the control samples 1-B and 2-B.

[2] = system: fermentation cultures; test: DME toxicity study: viability by colony forming units (CFU) after 24 hours; format: cell-based
Method: as §1, §2

[3] = DME saturation concentration in fermentation broth; format: physicochemical; conditions: fermentation conditions of 38° C.
[4] = cited from earlier work

COC [DME, dimethyl ether]
effect on growth and solvent production ([1]; DME above 2.5 wt. % (2.5 to 3 wt. %)): substantial decrease; also recorded: more substantially inhibited; also recorded: severely inhibit | effect on growth and solvent production ([1]; DME approximately 1.6 wt. %): some inhibition; also recorded: partially inhibit | effect on cell growth and solvent production ([1]; DME below 0.7 wt. %): did not appear to inhibit growth; also recorded: do not have a noticeable effect; also recorded: have no observable effect; also recorded: no noticeable effect | A600 ([1]; culture 1-1, […] DME, 4 hours): 0.184 | A600 ([1]; culture 1-1, […] DME, 7 hours): 0.241 | A600 ([1]; culture 1-1, […] DME, 28 hours): 0.137 | A600 ([1]; culture 1-1, […] DME, 196 hours): 0.075 | A600 ([1]; culture 1-2, 3.48% DME, 4 hours): 0.205 | A600 ([1]; culture 1-2, 3.48% DME, 7 hours): 0.194 | A600 ([1]; culture 1-2, 3.48% DME, 28 hours): 0.175 | A600 ([1]; culture 1-2, 3.48% DME, 196 hours): 0.39 | A600 values ([1]; culture 1-2, DME 18.1 g/L, 3 hours): 0.523 | A600 values ([1]; culture 1-2, DME 18.1 g/L, 24 hours): 2.565 | A600 values ([1]; culture 1-2, DME 18.1 g/L, 40 hours): 1.82 | A600 values ([1]; culture 1-2, DME 18.1 g/L, 64 hours): 1.97 | A600 values ([1]; culture 1-3, DME 19.4 g/L, 3 hours): 0.463 | A600 values ([1]; culture 1-3, DME 19.4 g/L, 24 hours): 2.695 | A600 values ([1]; culture 1-3, DME 19.4 g/L, 40 hours): 2.16 | A600 values ([1]; culture 1-3, DME 19.4 g/L, 64 hours): 2.15 | A600 ([1]; culture 1-3, […] DME, 4 hours): 0.340 | A600 ([1]; culture 1-3, […] DME, 7 hours): 0.690 | A600 ([1]; culture 1-3, […] DME, 22 hours): 1.745 | A600 ([1]; culture 1-3, […] DME, 28 hours): 1.69 | A600 ([1]; culture 1-3, […] DME, 196 hours): 1.08 | A600 values ([1]; culture 1-4*, DME 43.8 g/L, 3 hours): 0.807 | A600 values ([1]; culture 1-4*, DME 43.8 g/L, 24 hours): 3.005 | A600 values ([1]; culture 1-4*, DME 43.8 g/L, 40 hours): 1.95 | A600 values ([1]; culture 1-4*, DME 43.8 g/L, 64 hours): 2.14 | A600 values ([1]; culture 1-5, DME 25.8 g/L, 3 hours): 0.543 | A600 values ([1]; culture 1-5, DME 25.8 g/L, 24 hours): 1.415 | A600 values ([1]; culture 1-5, DME 25.8 g/L, 40 hours): 1.28 | A600 values ([1]; culture 1-5, DME 25.8 g/L, 64 hours): 1.26 | A600 values ([1]; culture 2-1, DME 26.0 g/L, 3 hours): 0.505 | A600 values ([1]; culture 2-1, DME 26.0 g/L, 24 hours): 1.390 | A600 values ([1]; culture 2-1, DME 26.0 g/L, 40 hours): 2.48 | A600 values ([1]; culture 2-1, DME 26.0 g/L, 64 hours): 2.24 | A600 ([1]; culture 2-1, weight % DME printed as ?, 4 hours): 0.140 | A600 ([1]; culture 2-1, weight % DME printed as ?, 7 hours): 0.157 | A600 ([1]; culture 2-1, weight % DME printed as ?, 28 hours): 0.072 | A600 ([1]; culture 2-1, weight % DME printed as ?, 196 hours): 0.05 | A600 ([1]; culture 2-2, 3.92% DME, 4 hours): 0.173 | A600 ([1]; culture 2-2, 3.92% DME, 7 hours): 0.178 | A600 ([1]; culture 2-2, 3.92% DME, 28 hours): 0.127 | A600 ([1]; culture 2-2, 3.92% DME, 196 hours): 0.32 | A600 values ([1]; culture 2-2, DME 6.8 g/L, 3 hours): 0.776 | A600 values ([1]; culture 2-2, DME 6.8 g/L, 24 hours): 3.755 | A600 values ([1]; culture 2-2, DME 6.8 g/L, 40 hours): 1.29 | A600 values ([1]; culture 2-2, DME 6.8 g/L, 64 hours): 1.36 | A600 ([1]; culture 2-3, 3.72% DME, 4 hours): 0.230 | A600 ([1]; culture 2-3, 3.72% DME, 7 hours): 0.159 | A600 ([1]; culture 2-3, 3.72% DME, 28 hours): 0.077 | A600 ([1]; culture 2-3, 3.72% DME, 196 hours): 0.06 | A600 values ([1]; culture 2-3, DME 6.6 g/L, 3 hours): 0.783 | A600 values ([1]; culture 2-3, DME 6.6 g/L, 24 hours): 3.700 | A600 values ([1]; culture 2-3, DME 6.6 g/L, 40 hours): 2.65 | A600 values ([1]; culture 2-3, DME 6.6 g/L, 64 hours): 2.63 | A600 values ([1]; culture 2-4, DME 29.1 g/L, 3 hours): 0.590 | A600 values ([1]; culture 2-4, DME 29.1 g/L, 24 hours): 1.195 | A600 values ([1]; culture 2-4, DME 29.1 g/L, 40 hours): 2.63 | A600 values ([1]; culture 2-4, DME 29.1 g/L, 64 hours): 2.19 | A600 values ([1]; culture 2-5, DME 27.9 g/L, 3 hours): 0.885 | A600 values ([1]; culture 2-5, DME 27.9 g/L, 24 hours): 1.735 | A600 values ([1]; culture 2-5, DME 27.9 g/L, 40 hours): 1.18 | A600 values ([1]; culture 2-5, DME 27.9 g/L, 64 hours): 1.19 | effect on cell growth ([1]; media containing 3 to 4 wt. % DME): substantial reduction in cell growth | effect on cell viability (CFU) ([2]; DME approximately 3 wt. %, cultures 1-2 and 1-3): not toxic | effect on cell viability (CFU) ([2]; DME approximately 4 wt. %, second set of cultures): toxicity issues | CFU/ml after 24 hours ([2]; culture 1-1, […] DME): 770 CFU/ml | CFU/ml after 24 hours ([2]; culture 1-2, 3.48% DME): >10000 CFU/ml | CFU/ml after 24 hours ([2]; culture 1-3, […] DME): 200000 CFU/ml | CFU/ml after 24 hours ([2]; culture 2-1, weight % DME printed as ?): 0 CFU/ml | CFU/ml after 24 hours ([2]; culture 2-2, 3.92% DME): 4480 CFU/ml | CFU/ml after 24 hours ([2]; culture 2-3, 3.72% DME): 130 CFU/ml | amount of DME in the broth (saturation) [3]: ~2.3 wt. % | solubility in water [4]: approximately 20 wt. %
